# Experiments:
# Experiment in all cases: KINOMEscan kinase binding assay
# [1] = target: T1, 384 kinases from the human genome (Homo sapiens, UniProt P07949); conditions: kinase RET (Entrez RET)
# T1 construct: purchased Eurofin/DiscoverX
# How it was run: (§1)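 Competition binding (KINOMEscan) across 384 human kinases with compound at 10 µM. Ligand binding was expressed relative to DMSO (100%) as the average of duplicates from one experiment. S(10) selectivity score was derived.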
# [2] = target: T2, 384 kinases from the human genome (Homo sapiens, UniProt O75460); conditions: kinase ERN1 (Entrez ERN1)
# T2 construct: purchased Eurofin/DiscoverX
# How it was run: as §1
# [3] = target: T3, 384 kinases from the human genome (Homo sapiens, UniProt Q59H18); conditions: kinase TNNI3K (Entrez TNNI3K)
# T3 construct: purchased Eurofin/DiscoverX
# How it was run: as §1
# [4] = target: T4, 384 kinases from the human genome (Homo sapiens, UniProt O15111); conditions: kinase IKK-alpha (Entrez CHUK)
# T4 construct: purchased Eurofin/DiscoverX
# How it was run: as §1
# [5] = target: T5, 384 kinases from the human genome (Homo sapiens, UniProt Q9UM73); conditions: kinase ALK (Entrez ALK)
# T5 construct: purchased Eurofin/DiscoverX
# How it was run: as §1
# [6] = target: T6, 384 kinases from the human genome (Homo sapiens, UniProt O95382); conditions: kinase ASK2 (Entrez MAP3K6)
# T6 construct: purchased Eurofin/DiscoverX
# How it was run: as §1
# [7] = target: T7, 384 kinases from the human genome (Homo sapiens, UniProt Q02763); conditions: kinase TIE2 (Entrez TEK)
# T7 construct: purchased Eurofin/DiscoverX
# How it was run: as §1
# [8] = target: T8, 384 kinases from the human genome (Homo sapiens, UniProt Q8NEV4); conditions: kinase MYO3A (Entrez MYO3A)
# T8 construct: purchased Eurofin/DiscoverX
# How it was run: as §1
# [9] = target: T9, 384 kinases from the human genome (Homo sapiens, UniProt Q9H2X6); conditions: kinase HIPK2 (Entrez HIPK2)
# T9 construct: purchased Eurofin/DiscoverX
# How it was run: as §1
# [10] = target: T10, 384 kinases from the human genome (Homo sapiens, UniProt P29376); conditions: kinase LTK (Entrez LTK)
# T10 construct: purchased Eurofin/DiscoverX
# How it was run: as §1
# [11] = target: T11, 384 kinases from the human genome (Homo sapiens, UniProt Q8IWQ3); conditions: kinase BRSK2 (Entrez BRSK2)
# T11 construct: purchased Eurofin/DiscoverX
# How it was run: as §1
# [12] = target: T12, 384 kinases from the human genome (Homo sapiens, UniProt Q9BZL6); conditions: kinase PRKD2 (Entrez PRKD2)
# T12 construct: purchased Eurofin/DiscoverX
# How it was run: as §1
# [13] = target: T13, 384 kinases from the human genome (Homo sapiens, UniProt Q9H4A3); conditions: kinase WNK1 (Entrez WNK1)
# T13 construct: purchased Eurofin/DiscoverX
# How it was run: as §1
# [14] = target: T14, 384 kinases from the human genome (Homo sapiens, UniProt P49336); conditions: kinase CDK8 (Entrez CDK8)
# T14 construct: purchased Eurofin/DiscoverX
# How it was run: as §1
# [15] = target: T15, 384 kinases from the human genome (Homo sapiens, UniProt P31152); conditions: kinase ERK4 (Entrez MAPK4)
# T15 construct: purchased Eurofin/DiscoverX
# How it was run: as §1
# [16] = target: T16, 384 kinases from the human genome (Homo sapiens, UniProt P41240); conditions: kinase CSK (Entrez CSK)
# T16 construct: purchased Eurofin/DiscoverX
# How it was run: as §1
# T2 sequence (O75460 19-977): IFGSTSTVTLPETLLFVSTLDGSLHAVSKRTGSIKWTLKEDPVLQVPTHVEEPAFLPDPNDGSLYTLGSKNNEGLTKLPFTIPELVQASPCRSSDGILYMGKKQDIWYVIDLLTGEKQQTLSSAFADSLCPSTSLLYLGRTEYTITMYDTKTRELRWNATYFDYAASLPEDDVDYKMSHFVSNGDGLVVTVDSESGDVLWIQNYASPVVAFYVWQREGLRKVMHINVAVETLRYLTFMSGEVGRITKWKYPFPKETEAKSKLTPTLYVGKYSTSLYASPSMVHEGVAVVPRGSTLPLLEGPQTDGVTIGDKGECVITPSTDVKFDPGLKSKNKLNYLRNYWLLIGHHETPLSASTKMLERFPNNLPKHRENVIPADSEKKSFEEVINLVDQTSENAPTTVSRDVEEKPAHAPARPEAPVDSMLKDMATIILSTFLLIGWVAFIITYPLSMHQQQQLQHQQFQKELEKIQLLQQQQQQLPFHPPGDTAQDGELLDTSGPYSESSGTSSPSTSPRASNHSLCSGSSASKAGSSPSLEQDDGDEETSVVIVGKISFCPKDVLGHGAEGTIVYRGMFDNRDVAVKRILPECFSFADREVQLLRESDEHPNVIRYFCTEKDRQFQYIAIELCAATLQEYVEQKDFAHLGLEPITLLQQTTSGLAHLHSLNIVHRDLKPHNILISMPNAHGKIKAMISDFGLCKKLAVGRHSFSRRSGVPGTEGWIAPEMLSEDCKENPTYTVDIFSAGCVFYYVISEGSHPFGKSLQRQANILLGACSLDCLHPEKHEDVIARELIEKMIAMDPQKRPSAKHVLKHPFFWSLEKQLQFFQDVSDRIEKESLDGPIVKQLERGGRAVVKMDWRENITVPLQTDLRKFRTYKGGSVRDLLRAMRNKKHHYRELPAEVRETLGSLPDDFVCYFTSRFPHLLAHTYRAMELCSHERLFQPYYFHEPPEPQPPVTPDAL
# T11 sequence (Q8IWQ3 whole entry): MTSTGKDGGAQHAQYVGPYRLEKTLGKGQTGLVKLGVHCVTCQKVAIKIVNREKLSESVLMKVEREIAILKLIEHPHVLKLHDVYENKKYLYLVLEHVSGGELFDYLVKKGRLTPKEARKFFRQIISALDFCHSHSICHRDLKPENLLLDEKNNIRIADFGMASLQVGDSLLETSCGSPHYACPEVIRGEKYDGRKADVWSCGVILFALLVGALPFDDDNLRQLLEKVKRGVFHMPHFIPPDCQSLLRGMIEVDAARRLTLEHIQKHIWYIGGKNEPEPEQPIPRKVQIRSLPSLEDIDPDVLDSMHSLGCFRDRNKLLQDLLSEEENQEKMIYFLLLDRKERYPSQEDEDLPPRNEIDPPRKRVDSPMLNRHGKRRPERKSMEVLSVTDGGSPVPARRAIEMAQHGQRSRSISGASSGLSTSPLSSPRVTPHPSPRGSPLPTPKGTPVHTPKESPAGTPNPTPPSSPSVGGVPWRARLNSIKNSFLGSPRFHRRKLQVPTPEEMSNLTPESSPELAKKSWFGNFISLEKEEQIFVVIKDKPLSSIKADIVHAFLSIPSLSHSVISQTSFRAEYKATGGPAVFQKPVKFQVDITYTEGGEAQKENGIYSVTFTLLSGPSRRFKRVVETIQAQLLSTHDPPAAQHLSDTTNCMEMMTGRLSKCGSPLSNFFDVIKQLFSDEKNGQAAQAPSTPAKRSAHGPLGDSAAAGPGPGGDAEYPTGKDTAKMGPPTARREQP
# T12 sequence (Q9BZL6 whole entry): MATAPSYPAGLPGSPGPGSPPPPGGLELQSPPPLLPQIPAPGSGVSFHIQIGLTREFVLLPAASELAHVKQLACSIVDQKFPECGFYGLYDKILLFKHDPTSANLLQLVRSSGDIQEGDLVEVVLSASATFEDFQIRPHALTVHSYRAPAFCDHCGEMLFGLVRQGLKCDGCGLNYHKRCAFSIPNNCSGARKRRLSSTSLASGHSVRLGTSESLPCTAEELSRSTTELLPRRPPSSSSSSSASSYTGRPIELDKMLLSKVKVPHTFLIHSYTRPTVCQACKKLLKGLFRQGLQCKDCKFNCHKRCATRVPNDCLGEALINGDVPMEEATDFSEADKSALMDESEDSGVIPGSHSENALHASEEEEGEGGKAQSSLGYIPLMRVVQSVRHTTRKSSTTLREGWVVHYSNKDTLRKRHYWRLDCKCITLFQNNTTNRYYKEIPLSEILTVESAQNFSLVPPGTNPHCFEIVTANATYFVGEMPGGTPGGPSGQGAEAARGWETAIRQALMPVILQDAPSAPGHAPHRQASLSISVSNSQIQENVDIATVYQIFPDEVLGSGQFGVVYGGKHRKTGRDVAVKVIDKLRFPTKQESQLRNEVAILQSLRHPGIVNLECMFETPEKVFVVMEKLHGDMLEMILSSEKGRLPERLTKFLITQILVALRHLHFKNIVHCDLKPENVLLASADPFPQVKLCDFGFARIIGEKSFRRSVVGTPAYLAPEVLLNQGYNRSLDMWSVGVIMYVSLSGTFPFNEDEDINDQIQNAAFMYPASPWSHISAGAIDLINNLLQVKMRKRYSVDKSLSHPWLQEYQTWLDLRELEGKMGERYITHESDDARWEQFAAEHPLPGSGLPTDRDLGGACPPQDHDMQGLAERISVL
# T10 sequence (P29376 17-864): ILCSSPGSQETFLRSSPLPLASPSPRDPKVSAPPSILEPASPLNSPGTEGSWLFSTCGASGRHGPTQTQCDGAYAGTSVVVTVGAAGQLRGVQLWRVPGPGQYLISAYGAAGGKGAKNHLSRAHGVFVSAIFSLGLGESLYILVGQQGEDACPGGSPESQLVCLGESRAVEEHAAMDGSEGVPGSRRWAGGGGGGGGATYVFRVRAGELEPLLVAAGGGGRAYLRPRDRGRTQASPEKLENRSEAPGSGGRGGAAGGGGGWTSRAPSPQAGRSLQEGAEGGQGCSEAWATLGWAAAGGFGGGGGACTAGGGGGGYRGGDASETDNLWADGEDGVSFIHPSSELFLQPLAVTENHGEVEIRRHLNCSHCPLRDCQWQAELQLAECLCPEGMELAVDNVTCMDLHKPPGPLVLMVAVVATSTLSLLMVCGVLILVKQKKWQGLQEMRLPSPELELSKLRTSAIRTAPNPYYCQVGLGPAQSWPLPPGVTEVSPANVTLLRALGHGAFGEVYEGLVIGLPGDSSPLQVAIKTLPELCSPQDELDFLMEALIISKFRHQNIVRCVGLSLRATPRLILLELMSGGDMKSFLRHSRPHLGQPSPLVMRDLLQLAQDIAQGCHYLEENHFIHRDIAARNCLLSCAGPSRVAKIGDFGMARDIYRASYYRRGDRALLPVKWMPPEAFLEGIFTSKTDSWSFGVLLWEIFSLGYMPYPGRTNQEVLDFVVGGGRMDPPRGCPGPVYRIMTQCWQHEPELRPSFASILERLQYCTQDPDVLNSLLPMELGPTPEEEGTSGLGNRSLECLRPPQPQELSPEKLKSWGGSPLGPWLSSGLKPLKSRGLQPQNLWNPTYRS
# T6 sequence (O95382 whole entry): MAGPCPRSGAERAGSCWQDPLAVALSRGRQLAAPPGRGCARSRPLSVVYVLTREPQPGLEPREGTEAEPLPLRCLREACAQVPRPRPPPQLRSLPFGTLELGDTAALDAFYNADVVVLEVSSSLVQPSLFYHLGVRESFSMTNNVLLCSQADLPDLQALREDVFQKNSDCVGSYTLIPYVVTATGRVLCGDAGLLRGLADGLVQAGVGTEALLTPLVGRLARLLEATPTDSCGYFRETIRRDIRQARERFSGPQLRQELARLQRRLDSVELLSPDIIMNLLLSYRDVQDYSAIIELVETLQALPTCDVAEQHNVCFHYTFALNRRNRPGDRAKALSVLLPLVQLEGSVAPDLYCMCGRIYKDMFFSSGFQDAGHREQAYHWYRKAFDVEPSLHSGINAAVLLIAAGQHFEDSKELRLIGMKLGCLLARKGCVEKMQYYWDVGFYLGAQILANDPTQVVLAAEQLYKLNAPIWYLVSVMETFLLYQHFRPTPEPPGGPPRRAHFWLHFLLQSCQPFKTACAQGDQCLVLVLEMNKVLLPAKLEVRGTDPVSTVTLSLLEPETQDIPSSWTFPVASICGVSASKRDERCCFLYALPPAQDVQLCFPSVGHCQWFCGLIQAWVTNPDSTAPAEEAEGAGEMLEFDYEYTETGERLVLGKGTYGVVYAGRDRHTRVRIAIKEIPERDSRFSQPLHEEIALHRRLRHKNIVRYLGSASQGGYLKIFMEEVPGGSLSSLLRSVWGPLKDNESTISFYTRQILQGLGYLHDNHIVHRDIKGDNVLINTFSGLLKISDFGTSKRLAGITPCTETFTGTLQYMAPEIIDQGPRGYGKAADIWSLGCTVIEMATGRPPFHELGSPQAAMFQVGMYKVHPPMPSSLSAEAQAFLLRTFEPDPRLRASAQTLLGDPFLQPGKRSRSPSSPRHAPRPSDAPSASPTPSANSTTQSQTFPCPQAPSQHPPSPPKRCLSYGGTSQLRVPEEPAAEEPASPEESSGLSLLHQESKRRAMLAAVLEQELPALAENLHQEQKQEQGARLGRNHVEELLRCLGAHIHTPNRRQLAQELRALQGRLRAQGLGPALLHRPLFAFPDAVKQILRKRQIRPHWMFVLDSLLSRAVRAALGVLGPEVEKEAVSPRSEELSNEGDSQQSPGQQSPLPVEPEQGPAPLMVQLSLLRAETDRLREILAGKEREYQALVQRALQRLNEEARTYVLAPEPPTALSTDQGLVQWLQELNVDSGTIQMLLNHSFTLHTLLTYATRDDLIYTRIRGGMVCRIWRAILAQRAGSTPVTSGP
compound,measurement,setting,value
CC(C)C(=O)N1CCN(c2ccc(NC(=O)c3cc4ccccc4o3)cc2Cl)CC1 [Compound 21],Percent Control,[1],83%
same,Percent Control,[2],55%
same,Percent Control,[3],70%
same,Percent Control,[4],100%
same,Percent Control,[5],89%
same,Percent Control,[6],100%
same,Percent Control,[7],88%
same,Percent Control,[8],89%
same,Percent Control,[9],100%
same,Percent Control,[10],90%
same,Percent Control,[11],97%
same,Percent Control,[12],100%
same,Percent Control,[13],94%
same,Percent Control,[14],100%
same,Percent Control,[15],100%
same,Percent Control,[16],97%

# Source: article PMC8333425, “Discovery of a dual Ras and ARF6 inhibitor from a GPCR endocytosis screen” (Nature Communications, 2021)
